Test systems include COLO 205 colon; EKVX NSCLC; HOP-92 NSCLC; M14 melanoma; NCI-H23 lung; OVCAR-8 ovarian; SF-268 CNS; SK-MEL-5 melanoma; U251 CNS; NCI-H460 lung.
Assay in all cases: NCI-60 cell line screen, 48 h

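Compound exposure: 48 hours, 5 concentrations, 96-well plates. Here, GI50 denotes the concentration required for 50% inhibition of growth. The concentration for full growth arrest is given as TGI.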 Where only a bound is given, the exact number is not on record here.

`O=C1CSC(Cc2nc3ccccc3[nH]2)=N1`: the TGI in the experiment with COLO 205 colon was determined as 50 µM; with EKVX NSCLC, 75.6 µM; in the experiment on HOP-92 NSCLC, 57.8 µM; in the experiment on M14 melanoma it was 33.4 µM; with NCI-H23 lung it was 43.8 µM; in the experiment on OVCAR-8 ovarian it was 74.9 µM. Moreover, the results for the TGI in the experiment on SF-268 CNS, in the experiment with SK-MEL-5 melanoma and in the experiment on U251 CNS were over 31.6 µM, 26.6 µM and 49 µM, respectively.

For the molecule `CCCCCc1c(C)[nH]c(/C=C2\N=C(c3ccc[nH]3)C=C2CC)c1C`, the GI50 is 0.0188 µM in the experiment with COLO 205 colon; 0.0216 µM in the experiment with EKVX NSCLC; under 0.013 µM in the experiment on HOP-92 NSCLC; under 0.01 µM in the experiment on M14 melanoma; under 0.0124 µM in the experiment on NCI-H23 lung; under 0.01 µM in the experiment with SF-268 CNS. For the same molecule, the GI50 was 0.0141 µM with SK-MEL-5 melanoma and under 0.01 µM in the experiment with U251 CNS. The TGI in the experiment with COLO 205 colon is 0.134 µM; with EKVX NSCLC it was 0.364 µM; in the experiment on HOP-92 NSCLC, 0.0426 µM; in the experiment on M14 melanoma, 0.0237 µM; with NCI-H23 lung it was 0.135 µM; in the experiment with SF-268 CNS, 0.802 µM. The results for the TGI with SK-MEL-5 melanoma and in the experiment with U251 CNS were 0.0278 µM and 0.135 µM, respectively.

In the case of `Cc1[nH]n(-c2cccc(Cl)c2)c(=O)c1/C=C1\C=Nc2ccc(Br)cc21`, the GI50 with COLO 205 colon was 2 µM; with EKVX NSCLC, 5.45 µM; in the experiment with M14 melanoma, 14.1 µM; in the experiment with NCI-H23 lung, 6.65 µM; in the experiment on NCI-H460 lung, 1.78 µM; in the experiment on OVCAR-8 ovarian it was 3.52 µM. The figures for the GI50 with SF-268 CNS, with SK-MEL-5 melanoma and in the experiment with U251 CNS were 5.49 µM, 9.48 µM and 2.83 µM, respectively. Besides, the TGI in the experiment on COLO 205 colon is 4.29 µM; in the experiment on EKVX NSCLC it was 73.3 µM; with M14 melanoma, over 100 µM; with NCI-H23 lung it was 26.4 µM; with NCI-H460 lung, 3.53 µM; with OVCAR-8 ovarian, 13.8 µM. Also, the TGI in the experiment on SF-268 CNS was 26.4 µM; with SK-MEL-5 melanoma, over 100 µM; in the experiment on U251 CNS it was 8.65 µM.

With `CSC1(CC(=O)N(C)C)C(=O)Nc2ccccc21` (stereo not given), the TGI with COLO 205 colon, with EKVX NSCLC, with M14 melanoma, in the experiment with NCI-H23 lung, in the experiment with NCI-H460 lung and in the experiment on SF-268 CNS was over 100 µM throughout. The TGI with SK-MEL-5 melanoma and in the experiment on U251 CNS was over 100 µM each time.

For the molecule `CCOC(=O)[C@H](CCCNC(=O)OC(C)(C)C)NCc1ccc(OC)c(OC)c1`, the TGI in the experiment with COLO 205 colon, with EKVX NSCLC, in the experiment with HOP-92 NSCLC, in the experiment on M14 melanoma, with NCI-H23 lung and with OVCAR-8 ovarian was over 100 µM in each case. Also, the TGI with SF-268 CNS, in the experiment with SK-MEL-5 melanoma and with U251 CNS was over 100 µM in each case.

Consider `COc1cc2cn3c4ccc(O)cc4[nH]c(=O)c3c2cc1OC`, for which the GI50 in the experiment with COLO 205 colon is 0.0201 µM; in the experiment with EKVX NSCLC it was 0.0607 µM; with HOP-92 NSCLC, 2.14 µM; with M14 melanoma, 0.0206 µM; in the experiment on NCI-H23 lung, 0.0716 µM; in the experiment with OVCAR-8 ovarian, 0.0319 µM. Moreover, the GI50 was under 0.01 µM in the experiment with SF-268 CNS, under 0.015 µM in the experiment on SK-MEL-5 melanoma and under 0.01 µM in the experiment with U251 CNS. Moreover, the TGI came to 0.429 µM in the experiment on COLO 205 colon; 2 µM with EKVX NSCLC; 7.72 µM in the experiment with HOP-92 NSCLC; 1.64 µM in the experiment with M14 melanoma; 1.9 µM with NCI-H23 lung; 1.53 µM with OVCAR-8 ovarian. Moreover, the results for the TGI in the experiment with SF-268 CNS, in the experiment with SK-MEL-5 melanoma and with U251 CNS were 1.55 µM, 0.563 µM and 1.23 µM, respectively.

For the molecule `CC(=O)c1c(CBr)n([O-])c2ccccc2[n+]1=O`, the GI50 with COLO 205 colon was 1.81 µM; in the experiment on EKVX NSCLC, 13.2 µM; in the experiment on HOP-92 NSCLC, 7.36 µM; with M14 melanoma, 12.1 µM; with NCI-H23 lung it was 15.7 µM; with OVCAR-8 ovarian it was 18.1 µM. Moreover, the figures for the GI50 with SK-MEL-5 melanoma and with U251 CNS were 10.5 µM and 16.2 µM, respectively. The TGI with COLO 205 colon was 3.63 µM; with EKVX NSCLC, 30.3 µM; in the experiment with HOP-92 NSCLC, 24 µM; with M14 melanoma it was 25.6 µM; in the experiment with NCI-H23 lung, 32.6 µM; in the experiment with OVCAR-8 ovarian, 40.7 µM. Further, the TGI amounted to 22.6 µM in the experiment with SK-MEL-5 melanoma and 29.9 µM in the experiment with U251 CNS.

Take `C#CC(=O)Nc1cccc(Nc2nc3c(c(NCc4ccccc4)n2)CCCC3)c1`: the GI50 with COLO 205 colon is 0.401 µM; with EKVX NSCLC, 0.34 µM; with HOP-92 NSCLC it was under 0.01 µM; in the experiment with M14 melanoma, 0.261 µM; in the experiment with OVCAR-8 ovarian, 0.0144 µM; in the experiment on SF-268 CNS it was 0.0203 µM. The GI50 is 1.12 µM in the experiment with SK-MEL-5 melanoma and 0.0208 µM with U251 CNS. The TGI in the experiment with COLO 205 colon is 1.14 µM; with EKVX NSCLC, 1.99 µM; with HOP-92 NSCLC, under 0.01 µM; in the experiment on M14 melanoma, 1.22 µM; in the experiment on OVCAR-8 ovarian it was 1.12 µM; with SF-268 CNS, 0.0958 µM. Moreover, the TGI in the experiment with SK-MEL-5 melanoma was 2.44 µM; in the experiment with U251 CNS, 0.0776 µM.

Take `Nc1ccncc1/C=C1/C(=O)Nc2ccccc21`: the GI50 was 19.8 µM with COLO 205 colon; 47.2 µM with EKVX NSCLC; 20.5 µM in the experiment on M14 melanoma; 31.9 µM in the experiment with NCI-H23 lung; 28.4 µM with NCI-H460 lung; 62.5 µM in the experiment with OVCAR-8 ovarian. Besides, the figures for the GI50 in the experiment on SF-268 CNS, in the experiment with SK-MEL-5 melanoma and with U251 CNS were 28 µM, 28 µM and 47.9 µM, respectively. In addition, the TGI with COLO 205 colon is over 100 µM; with EKVX NSCLC it was over 100 µM; in the experiment with M14 melanoma, 59.6 µM; in the experiment with NCI-H23 lung it was over 100 µM; with NCI-H460 lung, over 100 µM; with OVCAR-8 ovarian, over 100 µM. The TGI in the experiment on SF-268 CNS, in the experiment on SK-MEL-5 melanoma and in the experiment with U251 CNS was over 100 µM throughout.

Turning to `O=C(CCC(=O)Nc1cccc(Cl)c1)CC(=O)c1ccc(Cl)cc1`, the TGI in the experiment with COLO 205 colon, in the experiment with HOP-92 NSCLC, with M14 melanoma, with NCI-H23 lung, in the experiment on NCI-H460 lung and in the experiment on OVCAR-8 ovarian was over 100 µM in each case. In the experiment on SF-268 CNS, this molecule had a TGI of over 100 µM.

Source of the values: PubChem BioAssay (NCI).
